Measured values as given in paper PMC12621043, “Un-LOK-ing a New Approach for Conformational Selective Targeting of STK10 (LOK)” (ACS Medicinal Chemistry Letters, 2025).

target: T1, STK10 (Homo sapiens, UniProt O94804); experiment: DSF Tm panel; type: binding; conditions: 10 μM compound
T1 construct: purchased in-house DSF kinase panel (SGC-style construct names; the trailing letter is the construct ID)
T1 sequence (O94804 18-317 limits assumed): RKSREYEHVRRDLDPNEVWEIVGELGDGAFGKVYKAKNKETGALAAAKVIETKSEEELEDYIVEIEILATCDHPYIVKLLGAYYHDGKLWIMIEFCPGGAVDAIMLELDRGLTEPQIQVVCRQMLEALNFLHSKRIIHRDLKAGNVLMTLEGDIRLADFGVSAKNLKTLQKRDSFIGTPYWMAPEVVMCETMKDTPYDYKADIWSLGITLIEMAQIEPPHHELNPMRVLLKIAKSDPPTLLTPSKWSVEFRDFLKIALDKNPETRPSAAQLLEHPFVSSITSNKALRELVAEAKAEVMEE

Row | SMILES | ΔTm at 10 µM
1 | COc1ccc(CNC(=O)Nc2ccc3cc2OCCOCCNc2ccn4ncc-3c4n2)cc1F [compound 32] | 7.6 °C
2 | COc1cc(CNC(=O)Nc2ccc3cc2OCCOCCNc2ccn4ncc-3c4n2)ccc1F [compound 33] | 6.7 °C

target: T2, UKL3A (ULK3A) (Homo sapiens, UniProt Q6PHR2); experiment: DSF Tm panel; type: binding; conditions: 10 μM compound
T2 construct: purchased in-house DSF kinase panel (SGC-style construct names; the trailing letter is the construct ID)
T2 sequence (Q6PHR2 1-279): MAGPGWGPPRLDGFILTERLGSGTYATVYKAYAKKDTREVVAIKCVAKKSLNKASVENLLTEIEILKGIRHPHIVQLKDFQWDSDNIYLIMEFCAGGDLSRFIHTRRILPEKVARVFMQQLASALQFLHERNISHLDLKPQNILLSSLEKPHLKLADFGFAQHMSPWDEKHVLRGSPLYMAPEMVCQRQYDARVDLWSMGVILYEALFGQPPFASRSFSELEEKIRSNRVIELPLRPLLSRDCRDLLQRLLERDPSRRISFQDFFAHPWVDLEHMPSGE

Row | SMILES | ΔTm at 10 µM
3 | COc1ccc(CNC(=O)Nc2ccc3cc2OCCOCCNc2ccn4ncc-3c4n2)cc1F [compound 32] | 5.9 °C
4 | COc1cc(CNC(=O)Nc2ccc3cc2OCCOCCNc2ccn4ncc-3c4n2)ccc1F [compound 33] | 4.5 °C

target: T3, CLK1A (Homo sapiens, UniProt P49759); experiment: DSF Tm panel; type: binding; conditions: 10 μM compound
T3 construct: purchased in-house DSF kinase panel (SGC-style construct names; the trailing letter is the construct ID)
T3 sequence (P49759 148-484): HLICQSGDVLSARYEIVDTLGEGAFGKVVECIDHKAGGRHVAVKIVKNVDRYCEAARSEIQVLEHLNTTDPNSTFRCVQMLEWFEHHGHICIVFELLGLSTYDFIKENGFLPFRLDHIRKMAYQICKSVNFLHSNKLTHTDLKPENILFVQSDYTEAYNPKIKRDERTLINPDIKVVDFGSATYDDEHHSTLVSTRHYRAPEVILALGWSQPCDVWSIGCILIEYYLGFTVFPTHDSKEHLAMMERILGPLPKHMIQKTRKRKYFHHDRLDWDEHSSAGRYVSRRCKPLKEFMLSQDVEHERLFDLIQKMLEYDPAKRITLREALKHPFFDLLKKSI

Row | SMILES | ΔTm at 10 µM
5 | COc1ccc(CNC(=O)Nc2ccc3cc2OCCOCCNc2ccn4ncc-3c4n2)cc1F [compound 32] | 2.7 °C
6 | COc1cc(CNC(=O)Nc2ccc3cc2OCCOCCNc2ccn4ncc-3c4n2)ccc1F [compound 33] | 4.7 °C

target: T4, DAPK3 (DAPK3A) (Homo sapiens, UniProt O43293); experiment: DSF Tm panel; type: binding; conditions: 10 μM compound
T4 construct: purchased in-house DSF kinase panel (SGC-style construct names; the trailing letter is the construct ID)
T4 sequence (O43293 whole entry): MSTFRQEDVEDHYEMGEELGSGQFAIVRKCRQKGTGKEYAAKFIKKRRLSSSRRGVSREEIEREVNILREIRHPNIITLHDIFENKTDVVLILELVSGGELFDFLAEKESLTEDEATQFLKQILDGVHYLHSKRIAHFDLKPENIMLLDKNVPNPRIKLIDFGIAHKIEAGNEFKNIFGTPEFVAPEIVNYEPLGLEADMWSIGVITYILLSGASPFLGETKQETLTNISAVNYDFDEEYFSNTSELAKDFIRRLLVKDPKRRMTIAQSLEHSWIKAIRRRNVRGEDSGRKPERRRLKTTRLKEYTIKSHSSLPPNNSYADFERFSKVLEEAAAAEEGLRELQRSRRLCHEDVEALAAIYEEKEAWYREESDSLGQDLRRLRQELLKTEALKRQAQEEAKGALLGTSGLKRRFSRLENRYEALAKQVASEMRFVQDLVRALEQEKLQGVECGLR

Row | SMILES | ΔTm at 10 µM
7 | COc1ccc(CNC(=O)Nc2ccc3cc2OCCOCCNc2ccn4ncc-3c4n2)cc1F [compound 32] | 1.2 °C
8 | COc1cc(CNC(=O)Nc2ccc3cc2OCCOCCNc2ccn4ncc-3c4n2)ccc1F [compound 33] | 2.1 °C

target: T5, MAP3K5A (Homo sapiens, UniProt Q99683); experiment: DSF Tm panel; type: binding; conditions: 10 μM compound
T5 construct: purchased in-house DSF kinase panel (SGC-style construct names; the trailing letter is the construct ID)
T5 sequence (Q99683 659-951): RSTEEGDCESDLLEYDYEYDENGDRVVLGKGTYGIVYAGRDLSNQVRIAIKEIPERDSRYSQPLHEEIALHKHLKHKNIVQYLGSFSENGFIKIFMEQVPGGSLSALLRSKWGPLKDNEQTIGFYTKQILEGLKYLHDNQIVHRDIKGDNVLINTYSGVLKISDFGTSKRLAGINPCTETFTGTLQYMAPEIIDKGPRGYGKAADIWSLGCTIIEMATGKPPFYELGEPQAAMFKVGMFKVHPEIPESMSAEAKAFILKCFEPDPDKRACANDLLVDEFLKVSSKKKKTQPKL

Row | SMILES | ΔTm at 10 µM
9 | COc1ccc(CNC(=O)Nc2ccc3cc2OCCOCCNc2ccn4ncc-3c4n2)cc1F [compound 32] | 2 °C
10 | COc1cc(CNC(=O)Nc2ccc3cc2OCCOCCNc2ccn4ncc-3c4n2)ccc1F [compound 33] | 2.8 °C

target: T6, PCTK1A (Homo sapiens, UniProt Q00536); experiment: DSF Tm panel; type: binding; conditions: 10 μM compound
T6 construct: purchased in-house DSF kinase panel (SGC-style construct names; the trailing letter is the construct ID)
T6 sequence (Q00536 163-478): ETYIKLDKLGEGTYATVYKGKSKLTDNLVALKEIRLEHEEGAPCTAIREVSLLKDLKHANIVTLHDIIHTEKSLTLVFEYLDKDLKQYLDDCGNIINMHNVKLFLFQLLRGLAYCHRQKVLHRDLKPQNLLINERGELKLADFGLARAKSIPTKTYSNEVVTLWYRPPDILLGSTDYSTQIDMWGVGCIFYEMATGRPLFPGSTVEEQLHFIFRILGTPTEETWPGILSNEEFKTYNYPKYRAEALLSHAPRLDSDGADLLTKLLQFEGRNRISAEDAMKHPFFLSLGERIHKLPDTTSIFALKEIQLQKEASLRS

Row | SMILES | ΔTm at 10 µM
11 | COc1ccc(CNC(=O)Nc2ccc3cc2OCCOCCNc2ccn4ncc-3c4n2)cc1F [compound 32] | 2 °C
12 | COc1cc(CNC(=O)Nc2ccc3cc2OCCOCCNc2ccn4ncc-3c4n2)ccc1F [compound 33] | 1.7 °C

target: T7, MAP2K6A (Homo sapiens, UniProt P52564); experiment: DSF Tm panel; type: binding; conditions: 10 μM compound
T7 construct: purchased in-house DSF kinase panel (SGC-style construct names; the trailing letter is the construct ID)
T7 sequence (P52564 53-314): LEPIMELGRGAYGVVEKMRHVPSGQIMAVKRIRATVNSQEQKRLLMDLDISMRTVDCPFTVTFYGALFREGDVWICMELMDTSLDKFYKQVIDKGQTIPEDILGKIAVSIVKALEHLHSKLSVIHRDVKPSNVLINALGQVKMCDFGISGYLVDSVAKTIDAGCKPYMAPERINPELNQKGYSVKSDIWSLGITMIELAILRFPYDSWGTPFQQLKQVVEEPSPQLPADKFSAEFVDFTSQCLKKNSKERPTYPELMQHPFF

Row | SMILES | ΔTm at 10 µM
13 | COc1ccc(CNC(=O)Nc2ccc3cc2OCCOCCNc2ccn4ncc-3c4n2)cc1F [compound 32] | 1 °C
14 | COc1cc(CNC(=O)Nc2ccc3cc2OCCOCCNc2ccn4ncc-3c4n2)ccc1F [compound 33] | 1.1 °C

target: T8, CAMK2BA (Homo sapiens, UniProt Q13554); experiment: DSF Tm panel; type: binding; conditions: 10 μM compound
T8 construct: purchased in-house DSF kinase panel (SGC-style construct names; the trailing letter is the construct ID)
T8 sequence (Q13554 11-303): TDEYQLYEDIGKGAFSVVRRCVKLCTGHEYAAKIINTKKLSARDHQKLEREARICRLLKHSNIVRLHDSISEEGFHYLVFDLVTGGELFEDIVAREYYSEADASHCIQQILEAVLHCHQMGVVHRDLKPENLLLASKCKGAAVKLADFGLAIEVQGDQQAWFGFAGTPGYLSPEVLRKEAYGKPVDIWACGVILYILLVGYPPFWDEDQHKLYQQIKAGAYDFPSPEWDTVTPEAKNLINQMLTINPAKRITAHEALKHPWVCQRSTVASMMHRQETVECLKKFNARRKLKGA

Row | SMILES | ΔTm at 10 µM
15 | COc1ccc(CNC(=O)Nc2ccc3cc2OCCOCCNc2ccn4ncc-3c4n2)cc1F [compound 32] | 0 °C
16 | COc1cc(CNC(=O)Nc2ccc3cc2OCCOCCNc2ccn4ncc-3c4n2)ccc1F [compound 33] | 0.1 °C

target: T9, ABL1 (ABL1A) (Homo sapiens, UniProt P00519); experiment: DSF Tm panel; type: binding; conditions: 10 μM compound
T9 construct: purchased in-house DSF kinase panel (SGC-style construct names; the trailing letter is the construct ID)
T9 sequence (P00519 229-512): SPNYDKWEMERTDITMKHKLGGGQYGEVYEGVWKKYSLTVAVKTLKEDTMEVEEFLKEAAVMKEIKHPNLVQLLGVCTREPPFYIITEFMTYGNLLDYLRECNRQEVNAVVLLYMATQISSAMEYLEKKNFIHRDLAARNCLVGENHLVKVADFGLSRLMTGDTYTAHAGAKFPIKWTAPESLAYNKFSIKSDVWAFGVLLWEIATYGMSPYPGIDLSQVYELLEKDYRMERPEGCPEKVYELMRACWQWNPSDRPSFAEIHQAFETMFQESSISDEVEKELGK

Row | SMILES | ΔTm at 10 µM
17 | COc1ccc(CNC(=O)Nc2ccc3cc2OCCOCCNc2ccn4ncc-3c4n2)cc1F [compound 32] | 1.7 °C
18 | COc1cc(CNC(=O)Nc2ccc3cc2OCCOCCNc2ccn4ncc-3c4n2)ccc1F [compound 33] | 1.5 °C

target: T10, PIM1 (PIM1A) (Homo sapiens, UniProt P11309); experiment: DSF Tm panel; type: binding; conditions: 10 μM compound
T10 construct: purchased in-house DSF kinase panel (SGC-style construct names; the trailing letter is the construct ID)
T10 sequence (P11309 whole entry): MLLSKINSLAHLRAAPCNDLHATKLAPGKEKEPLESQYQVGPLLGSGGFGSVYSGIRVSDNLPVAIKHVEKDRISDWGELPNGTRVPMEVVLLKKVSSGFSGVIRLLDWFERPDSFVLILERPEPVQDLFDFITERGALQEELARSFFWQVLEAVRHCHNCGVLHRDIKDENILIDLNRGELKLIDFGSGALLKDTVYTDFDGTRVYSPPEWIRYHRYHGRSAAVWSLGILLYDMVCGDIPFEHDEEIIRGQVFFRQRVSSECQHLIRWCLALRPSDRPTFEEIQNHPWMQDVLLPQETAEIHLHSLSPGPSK

Row | SMILES | ΔTm at 10 µM
19 | COc1ccc(CNC(=O)Nc2ccc3cc2OCCOCCNc2ccn4ncc-3c4n2)cc1F [compound 32] | 1.7 °C
20 | COc1cc(CNC(=O)Nc2ccc3cc2OCCOCCNc2ccn4ncc-3c4n2)ccc1F [compound 33] | 1.6 °C

target: T11, GPRK5A (Homo sapiens, UniProt P34947); experiment: DSF Tm panel; type: binding; conditions: 10 μM compound
T11 construct: purchased in-house DSF kinase panel (SGC-style construct names; the trailing letter is the construct ID)
T11 sequence (P34947 186-514): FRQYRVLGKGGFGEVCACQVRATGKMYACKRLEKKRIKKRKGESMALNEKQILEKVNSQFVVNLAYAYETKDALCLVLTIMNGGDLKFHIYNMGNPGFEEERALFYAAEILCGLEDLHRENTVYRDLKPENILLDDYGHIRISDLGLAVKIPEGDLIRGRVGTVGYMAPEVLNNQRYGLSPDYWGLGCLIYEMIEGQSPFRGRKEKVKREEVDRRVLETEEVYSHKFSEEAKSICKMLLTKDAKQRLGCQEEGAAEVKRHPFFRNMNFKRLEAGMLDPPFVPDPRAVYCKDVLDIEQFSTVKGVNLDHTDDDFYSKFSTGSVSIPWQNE

Row | SMILES | ΔTm at 10 µM
21 | COc1ccc(CNC(=O)Nc2ccc3cc2OCCOCCNc2ccn4ncc-3c4n2)cc1F [compound 32] | 0.7 °C
22 | COc1cc(CNC(=O)Nc2ccc3cc2OCCOCCNc2ccn4ncc-3c4n2)ccc1F [compound 33] | 2.2 °C

target: T12, BRAFA (Homo sapiens, UniProt P15056); experiment: DSF Tm panel; type: binding; conditions: 10 μM compound
T12 construct: purchased in-house DSF kinase panel (SGC-style construct names; the trailing letter is the construct ID)
T12 sequence (P15056 448-723): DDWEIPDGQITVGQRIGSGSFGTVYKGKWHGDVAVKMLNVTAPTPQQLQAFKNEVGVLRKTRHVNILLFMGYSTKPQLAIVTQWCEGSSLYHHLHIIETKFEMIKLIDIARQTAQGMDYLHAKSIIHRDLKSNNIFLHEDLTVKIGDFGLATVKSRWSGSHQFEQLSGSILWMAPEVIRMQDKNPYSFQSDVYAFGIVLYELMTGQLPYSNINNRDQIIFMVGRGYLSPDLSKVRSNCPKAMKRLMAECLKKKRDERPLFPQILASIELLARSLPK

Row | SMILES | ΔTm at 10 µM
23 | COc1ccc(CNC(=O)Nc2ccc3cc2OCCOCCNc2ccn4ncc-3c4n2)cc1F [compound 32] | -0.2 °C
24 | COc1cc(CNC(=O)Nc2ccc3cc2OCCOCCNc2ccn4ncc-3c4n2)ccc1F [compound 33] | -0.6 °C

target: T13, CSNK1DA (Homo sapiens, UniProt P48730); experiment: DSF Tm panel; type: binding; conditions: 10 μM compound
T13 construct: purchased in-house DSF kinase panel (SGC-style construct names; the trailing letter is the construct ID)
T13 sequence (P48730 1-294): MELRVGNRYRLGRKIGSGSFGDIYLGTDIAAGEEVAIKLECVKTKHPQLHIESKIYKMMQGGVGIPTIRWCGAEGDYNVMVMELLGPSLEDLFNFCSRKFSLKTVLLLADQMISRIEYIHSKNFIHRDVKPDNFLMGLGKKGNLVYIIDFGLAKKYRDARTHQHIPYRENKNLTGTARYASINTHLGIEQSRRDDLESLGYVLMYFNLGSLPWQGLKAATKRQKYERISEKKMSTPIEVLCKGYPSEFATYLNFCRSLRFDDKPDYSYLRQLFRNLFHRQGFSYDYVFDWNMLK

Row | SMILES | ΔTm at 10 µM
25 | COc1ccc(CNC(=O)Nc2ccc3cc2OCCOCCNc2ccn4ncc-3c4n2)cc1F [compound 32] | -0.2 °C
26 | COc1cc(CNC(=O)Nc2ccc3cc2OCCOCCNc2ccn4ncc-3c4n2)ccc1F [compound 33] | 0.1 °C

target: T14, OSR1A (Homo sapiens, UniProt O95747); experiment: DSF Tm panel; type: binding; conditions: 10 μM compound
T14 construct: purchased in-house DSF kinase panel (SGC-style construct names; the trailing letter is the construct ID)
T14 sequence (O95747 17-291): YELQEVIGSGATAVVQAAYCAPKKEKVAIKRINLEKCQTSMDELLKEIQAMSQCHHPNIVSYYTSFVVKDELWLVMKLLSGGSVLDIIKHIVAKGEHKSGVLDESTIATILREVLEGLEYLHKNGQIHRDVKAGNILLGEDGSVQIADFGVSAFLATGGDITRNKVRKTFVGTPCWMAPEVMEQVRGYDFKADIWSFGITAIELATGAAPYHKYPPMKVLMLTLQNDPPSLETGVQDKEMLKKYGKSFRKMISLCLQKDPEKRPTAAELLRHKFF

Row | SMILES | ΔTm at 10 µM
27 | COc1ccc(CNC(=O)Nc2ccc3cc2OCCOCCNc2ccn4ncc-3c4n2)cc1F [compound 32] | 1.7 °C
28 | COc1cc(CNC(=O)Nc2ccc3cc2OCCOCCNc2ccn4ncc-3c4n2)ccc1F [compound 33] | 1.5 °C

target: T15, DMPK1A (Homo sapiens, UniProt Q09013); experiment: DSF Tm panel; type: binding; conditions: 10 μM compound
T15 construct: purchased in-house DSF kinase panel (SGC-style construct names; the trailing letter is the construct ID)
T15 sequence (Q09013 1-629): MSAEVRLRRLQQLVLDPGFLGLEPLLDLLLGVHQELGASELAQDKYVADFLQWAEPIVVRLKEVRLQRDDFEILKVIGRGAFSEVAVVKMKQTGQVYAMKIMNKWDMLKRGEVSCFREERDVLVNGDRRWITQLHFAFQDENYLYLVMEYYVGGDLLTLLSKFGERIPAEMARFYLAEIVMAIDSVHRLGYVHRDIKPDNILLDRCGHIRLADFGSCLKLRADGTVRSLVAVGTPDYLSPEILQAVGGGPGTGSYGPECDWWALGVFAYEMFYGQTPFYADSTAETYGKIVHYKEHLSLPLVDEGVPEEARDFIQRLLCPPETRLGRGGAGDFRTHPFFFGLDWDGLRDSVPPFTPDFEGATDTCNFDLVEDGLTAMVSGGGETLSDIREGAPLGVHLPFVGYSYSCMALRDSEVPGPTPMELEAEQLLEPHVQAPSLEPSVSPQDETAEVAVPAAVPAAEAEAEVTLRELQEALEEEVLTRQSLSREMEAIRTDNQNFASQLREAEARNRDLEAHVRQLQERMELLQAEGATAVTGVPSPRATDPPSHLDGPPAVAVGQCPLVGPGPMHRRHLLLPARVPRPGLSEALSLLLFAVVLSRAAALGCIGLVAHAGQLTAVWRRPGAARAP

Row | SMILES | ΔTm at 10 µM
29 | COc1ccc(CNC(=O)Nc2ccc3cc2OCCOCCNc2ccn4ncc-3c4n2)cc1F [compound 32] | 0.6 °C
30 | COc1cc(CNC(=O)Nc2ccc3cc2OCCOCCNc2ccn4ncc-3c4n2)ccc1F [compound 33] | 0.7 °C

target: T16, SRPK1A (Homo sapiens, UniProt Q96SB4); experiment: DSF Tm panel; type: binding; conditions: 10 μM compound
T16 construct: purchased in-house DSF kinase panel (SGC-style construct names; the trailing letter is the construct ID)
T16 sequence (Q96SB4 80-653): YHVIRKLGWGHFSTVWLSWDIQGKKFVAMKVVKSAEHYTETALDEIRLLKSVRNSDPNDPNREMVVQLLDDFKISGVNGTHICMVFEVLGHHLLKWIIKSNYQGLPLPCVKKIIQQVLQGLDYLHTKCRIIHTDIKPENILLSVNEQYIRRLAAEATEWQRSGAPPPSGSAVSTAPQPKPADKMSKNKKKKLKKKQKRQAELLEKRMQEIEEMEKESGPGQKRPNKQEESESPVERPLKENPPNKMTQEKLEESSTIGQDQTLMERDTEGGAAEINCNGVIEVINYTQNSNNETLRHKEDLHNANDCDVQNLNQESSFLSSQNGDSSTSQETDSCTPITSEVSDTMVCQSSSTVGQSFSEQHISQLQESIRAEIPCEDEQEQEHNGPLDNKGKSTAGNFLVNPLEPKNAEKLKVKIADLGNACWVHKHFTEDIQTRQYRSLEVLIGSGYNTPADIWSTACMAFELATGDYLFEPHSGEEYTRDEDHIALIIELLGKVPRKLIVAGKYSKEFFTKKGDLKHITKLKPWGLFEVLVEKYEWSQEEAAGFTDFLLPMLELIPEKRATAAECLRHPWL

Row | SMILES | ΔTm at 10 µM
31 | COc1ccc(CNC(=O)Nc2ccc3cc2OCCOCCNc2ccn4ncc-3c4n2)cc1F [compound 32] | 0 °C
32 | COc1cc(CNC(=O)Nc2ccc3cc2OCCOCCNc2ccn4ncc-3c4n2)ccc1F [compound 33] | 0 °C

target: T17, AKT3A (Homo sapiens, UniProt Q9Y243); experiment: DSF Tm panel; type: binding; conditions: 10 μM compound
T17 construct: purchased in-house DSF kinase panel (SGC-style construct names; the trailing letter is the construct ID)
T17 sequence (Q9Y243 148-479): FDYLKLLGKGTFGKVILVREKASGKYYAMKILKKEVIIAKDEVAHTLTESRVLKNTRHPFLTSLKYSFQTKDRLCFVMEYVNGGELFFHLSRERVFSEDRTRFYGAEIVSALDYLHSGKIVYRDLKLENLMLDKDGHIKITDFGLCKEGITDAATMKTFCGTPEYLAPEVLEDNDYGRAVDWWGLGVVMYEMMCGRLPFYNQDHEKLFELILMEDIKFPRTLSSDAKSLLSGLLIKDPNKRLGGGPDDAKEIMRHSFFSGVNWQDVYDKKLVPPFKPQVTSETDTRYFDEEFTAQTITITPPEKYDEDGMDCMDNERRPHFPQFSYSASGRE

Row | SMILES | ΔTm at 10 µM
33 | COc1ccc(CNC(=O)Nc2ccc3cc2OCCOCCNc2ccn4ncc-3c4n2)cc1F [compound 32] | 0.8 °C
34 | COc1cc(CNC(=O)Nc2ccc3cc2OCCOCCNc2ccn4ncc-3c4n2)ccc1F [compound 33] | 0.9 °C

target: T18, MAPK14A (Homo sapiens, UniProt Q16539); experiment: DSF Tm panel; type: binding; conditions: 10 μM compound
T18 construct: purchased in-house DSF kinase panel (SGC-style construct names; the trailing letter is the construct ID)
T18 sequence (Q16539 whole entry): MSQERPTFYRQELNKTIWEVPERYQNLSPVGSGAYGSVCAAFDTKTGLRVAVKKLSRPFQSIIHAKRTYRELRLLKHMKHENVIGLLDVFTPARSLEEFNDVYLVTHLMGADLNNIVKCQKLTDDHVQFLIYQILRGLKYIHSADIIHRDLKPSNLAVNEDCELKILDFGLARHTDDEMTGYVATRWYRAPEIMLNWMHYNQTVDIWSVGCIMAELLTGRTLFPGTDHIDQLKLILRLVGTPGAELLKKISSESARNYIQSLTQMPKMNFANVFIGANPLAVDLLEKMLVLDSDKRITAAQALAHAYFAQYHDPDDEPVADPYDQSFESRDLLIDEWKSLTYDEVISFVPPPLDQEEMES

Row | SMILES | ΔTm at 10 µM
35 | COc1ccc(CNC(=O)Nc2ccc3cc2OCCOCCNc2ccn4ncc-3c4n2)cc1F [compound 32] | 2.4 °C
36 | COc1cc(CNC(=O)Nc2ccc3cc2OCCOCCNc2ccn4ncc-3c4n2)ccc1F [compound 33] | 1.4 °C
